Measurements from US8741836B2, “Polypeptides” (Novo Nordisk A/S, priority 2011, dated 2014).
Read-outs that look alike come from different tables or passages of the source. Starred links: 1 amine or outer side, 2 acyl side, 3 side chain; linkers in the order of their positions; H or OH if unused. Positions of bridges follow the written chain, without caps; N, C: chain ends. Residues, ends and D or L forms follow the SMILES beside them. Groups on a side chain read outwards from the residue. *: point of attachment. C20 diacid = O=C(O)CCCCCCCCCCCCCCCCCCC(=O)*; C18 diacid = O=C(O)CCCCCCCCCCCCCCCCC(=O)*; γGlu = O=C(O)[C@H](CCC(=O)[*:2])N[*:1]; AEEA = NCCOCCOCC(=O)O

Experiments:
[1] = biological target: T1, human amylin 3(a) receptor (human calcitonin receptor + RAMP-3) (Homo sapiens, UniProt O60896+P30988); assay: Assay (II)a functional assay, human amylin receptor (CRE luciferase reporter in BHK cells); format: cell-based
T1 construct: expressed in transfected cells; CRE-luciferase reporter
T1 sequence (P30988 25-474): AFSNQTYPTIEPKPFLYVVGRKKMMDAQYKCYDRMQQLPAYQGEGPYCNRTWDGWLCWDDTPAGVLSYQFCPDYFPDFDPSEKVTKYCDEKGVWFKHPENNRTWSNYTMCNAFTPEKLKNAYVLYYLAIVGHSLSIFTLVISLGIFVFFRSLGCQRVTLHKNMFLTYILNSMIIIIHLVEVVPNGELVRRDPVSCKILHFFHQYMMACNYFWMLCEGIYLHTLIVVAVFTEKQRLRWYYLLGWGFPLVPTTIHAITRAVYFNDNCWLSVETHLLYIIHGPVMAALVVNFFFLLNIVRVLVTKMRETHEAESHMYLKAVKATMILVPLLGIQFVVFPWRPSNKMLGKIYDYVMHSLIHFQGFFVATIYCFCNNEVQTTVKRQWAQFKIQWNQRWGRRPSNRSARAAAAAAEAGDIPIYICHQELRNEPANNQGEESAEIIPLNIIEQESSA
T1 sequence (O60896 24-148 partner): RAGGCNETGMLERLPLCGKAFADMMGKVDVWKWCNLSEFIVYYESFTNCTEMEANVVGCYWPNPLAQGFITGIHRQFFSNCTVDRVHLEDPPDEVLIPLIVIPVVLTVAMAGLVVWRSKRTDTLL
Text: (§1) 1. Luciferase Assay Outline
(§2) Activation of calcitonin and amylin (coexpression of calcitonin receptor and receptor activity modifying proteins (RAMP)) receptors lead to increased intracellular concentrations of cAMP. Consequently, transcription is activated by promoters containing multiple copies of the cAMP response element (CRE). It is thus possible to measure amylin activity by the use of a CRE luciferase reporter gene introduced into BHK cells also expressing calcitonin or amylin receptors.
(§3) A BHK570 cell line was stably transfected with the human calcitonin receptor and a CRE-responsive luciferase reporter gene. The cell line was further transfected with RAMP-3, using standard methods. This turns the calcitonin receptor into an amylin 3(a) receptor. Methotrexate, Neomycin, and Hygromycin are selection markers for luciferase, the calcitonin receptor, and RAMP-3, respectively.
(§4) To perform activity assays, BHK calcitonin (a) receptor- or amylin 3(a)-receptor/CRE-luc cells were seeded in white 96 well culture plates at a density of about 20.000 cells/well. […] After incubation overnight at 37° C. and 5% CO2, the growth medium was replaced by 50 μl/well assay medium (DMEM (without phenol red), Glutamax™, 10% FBS, and 10 mM Hepes, pH 7.4). Further, 50 μl/well of standard or sample in assay buffer were added. After 3 hours incubation at 37° C. and 5% CO2, the assay medium with standard or sample were removed and replaced by 100 μl/well PBS. Further, 100 μl/well LucLite™ was added. The plates were sealed and incubated at room temperature for 30 minutes. Finally, luminescence was measured on a TopCounter (Packard) in SPC (single photon counting) mode.

[2] = biological target: T2, human calcitonin receptor (Homo sapiens, UniProt P30988); assay: Assay (II)a functional assay, human calcitonin receptor (CRE luciferase reporter in BHK cells); format: cell-based
T2 construct: expressed in transfected cells; CRE-luciferase reporter
T2 sequence (P30988 25-474): T1 sequence (P30988 25-474)
Text: as §1, §2, §3, §4

[3] = Assay (IV) determination of solubility; format: physicochemical
Procedure: Assay (IV)—Determination of Solubility
The polypeptide was dissolved in water at −500 nmol/ml and mixed 1:1 with a series of buffers (100 mM glycylglycine pH 3.0, 100 mM glycylglycine pH 4.0, 100 mM glycylglycine pH 5.0, 100 mM bistrispropane pH 6.0, 100 mM bistrispropane pH 6.5, 100 mM bistrispropane pH 7.0, 100 mM bistrispropane pH 7.5, 100 mM bistrispropane pH 8.0). After 18 hours at room temperature the samples were centrifuged and the polypeptide concentration determined by HPLC.

[4] = Table 11, human amylin receptor
[5] = Table 11, human calcitonin receptor, read-out: CTa receptor human EC50

Row | EC50 [1, 4] [nM] | EC50 [2, 5] [nM] | EC50 [1] [nM] | EC50 ([1]; Table 4) [nM] | EC50 ([1]; Table 6, human amylin receptor) [nM] | EC50 ([1]; Table 7, human amylin receptor) [nM] | solubility at 18 h ([3]; bistrispropane buffer, pH 6.5, read-out: Solubility) [µM] | solubility at 18 h ([3]; bistrispropane buffer, pH 7.5, read-out: Solubility) [µM] | solubility at 18 h ([3]; bistrispropane buffer, pH 6.0, read-out: Solubility) [µM] | solubility at 18 h ([3]; bistrispropane buffer, pH 7.0, read-out: Solubility pH 7.0) [µM] | solubility at 18 h ([3]; bistrispropane buffer, pH 8.0, read-out: Solubility) [µM] | solubility at 18 h ([3]; glycylglycine buffer, pH 3.0, read-out: Solubility) [µM] | solubility at 18 h ([3]; glycylglycine buffer, pH 4.0, read-out: Solubility pH 4.0) [µM] | solubility at 18 h ([3]; glycylglycine buffer, pH 5.0, read-out: Solubility) [µM] | solubility at 18 h ([3]; pH 4.0, read-out: Solubility) [µM] | solubility at 18 h ([3]; pH 7.0, read-out: Solubility) [µM] | EC50 ([2]; Table 7, human calcitonin (CTa) receptor) [nM] | Structure (SMILES)
1 | 0.076 | 0.101 |  |  |  |  |  |  |  |  |  |  |  |  |  |  |  | CC[C@H](C)[C@H](NC(=O)[C@H](CCCCNC(=O)COCCOCCNC(=O)COCCOCCNC(=O)CC[C@H](NC(=O)CCCCCCCCCCCCCCCCC(=O)O)C(=O)O)NC(=O)CNC(=O)[C@H](Cc1ccccc1)NC(=O)[C@H](CC(N)=O)NC(=O)[C@H](CC(N)=O)NC(=O)[C@H](CO)NC(=O)[C@H](CO)NC(=O)[C@H](Cc1c[nH]cn1)NC(=O)[C@@H](NC(=O)[C@H](CC(C)C)NC(=O)[C@H](Cc1ccccc1)NC(=O)[C@H](CCC(=O)O)NC(=O)[C@H](C)NC(=O)[C@H](CC(C)C)NC(=O)[C@H](CCCNC(=N)N)NC(=O)[C@H](CCC(N)=O)NC(=O)[C@@H](NC(=O)[C@H](C)NC(=O)[C@@H]1CSSC[C@H](NC(=O)[C@@H](N)CCCCN)C(=O)N[C@@H](CC(N)=O)C(=O)N[C@@H]([C@@H](C)O)C(=O)N[C@@H](C)C(=O)N[C@@H]([C@@H](C)O)C(=O)N1)[C@@H](C)O)C(C)C)C(=O)N[C@@H](CC(C)C)C(=O)N1CCC[C@H]1C(=O)N1CCC[C@H]1C(=O)N[C@H](C(=O)N[C@@H](CC(N)=O)C(=O)N[C@H](C(=O)NCC(=O)N[C@@H](CO)C(=O)N[C@@H](CC(N)=O)C(=O)N[C@H](C(=O)N[C@@H](Cc1ccc(O)cc1)C(N)=O)[C@@H](C)O)C(C)C)[C@@H](C)O [Example 126] (H-KCNTATCATQRLAEFLVHSSNNFGK([AEEA-AEEA-γGlu-C18 diacid])ILPPTNVGSNTY-NH2; disulfide 2-7 (inferred); N-terminus and C-terminus assumed)
2 | 0.209 | 0.0675 | 0.209 | 0.209 | 0.209 | 0.209 | > 200 | > 200 | > 200 | > 200 | > 200 | > 200 | > 200 | > 200 | >200 | >200 | 0.0675 | CC(C)C[C@H](NC(=O)[C@H](CCCNC(=N)N)NC(=O)[C@H](CCC(N)=O)NC(=O)[C@@H](NC(=O)[C@H](C)NC(=O)[C@@H]1CSSC[C@H](NC(=O)[C@@H](N)CCCCNC(=O)CC[C@H](NC(=O)CCCCCCCCCCCCCCCCCCC(=O)O)C(=O)O)C(=O)N[C@@H](CC(N)=O)C(=O)N[C@@H]([C@@H](C)O)C(=O)N[C@@H](C)C(=O)N[C@@H]([C@@H](C)O)C(=O)N1)[C@@H](C)O)C(=O)N[C@@H](C)C(=O)N[C@@H](CCC(=O)O)C(=O)N[C@@H](Cc1ccccc1)C(=O)N[C@@H](CC(C)C)C(=O)N[C@@H](Cc1c[nH]cn1)C(=O)N[C@@H](Cc1c[nH]cn1)C(=O)N[C@@H](CO)C(=O)N[C@@H](CO)C(=O)N[C@@H](CCC(N)=O)C(=O)N[C@@H](CC(N)=O)C(=O)N[C@@H](Cc1ccccc1)C(=O)NCC(=O)N[C@@H](C)C(=O)N1CCC[C@H]1C(=O)N[C@@H](CC(C)C)C(=O)N[C@@H](CO)C(=O)N[C@@H](CO)C(=O)N[C@H](C(=O)N[C@@H](CC(N)=O)C(=O)N[C@H](C(=O)NCC(=O)N[C@@H](CO)C(=O)N[C@@H](CC(N)=O)C(=O)N[C@H](C(=O)N1CCC[C@H]1C(N)=O)[C@@H](C)O)C(C)C)[C@@H](C)O [Example 151, N-epsilon1-[(S)-4-Carboxy-4-(19-carboxynonadecanoylamino)butyryl]-[Glu14,His17,Gln21,Ala25,Pro26,Ser28,Ser29,Pro37]-pramlintide] (H-K([γGlu-C20 diacid])CNTATCATQRLAEFLHHSSQNFGAPLSSTNVGSNTP-NH2; disulfide 2-7 (inferred); N-terminus assumed)
